# Reference: patent US12522583B2, “Benzimidazole derivatives and aza-benzimidazole derivatives as Janus kinase 2 inhibitors and uses thereof” (Dana-Farber Cancer Institute, Inc., priority 2018, dated 2026)
# Experiments:
# Test in all cases: KINOMEscan
# Format in all cases: binding
# Conditions in all cases: read-out: percent control
# YANK3 = YANK3 (Homo sapiens (Human), UniProt Q86UX6)
# Text: (§1) Example 2. In Vitro Kinase Selectivity Profiling of the Compounds of the Present Disclosure
# FGR = FGR (Homo sapiens (Human), UniProt P09769)
# Text: as §1
# MEK6 = MEK6 (Homo sapiens (Human), UniProt P52564)
# Text: as §1
# PLK4 = PLK4 (Homo sapiens (Human), UniProt O00444)
# Text: as §1
# SIK = SIK (Homo sapiens (Human), UniProt P57059)
# Text: as §1
# CSNK1A1L = CSNK1A1L (Homo sapiens (Human), UniProt Q8N752)
# Text: as §1
# GSK3A = GSK3A (Homo sapiens (Human), UniProt P49840)
# Text: as §1
# BIKE = BIKE (Homo sapiens (Human), UniProt Q9NSY1)
# Text: as §1
# MET(M1250T) = MET(M1250T) (Homo sapiens (Human), UniProt P08581, M1250T)
# Text: as §1
# CDKL1 = CDKL1 (Homo sapiens (Human), UniProt Q00532)
# Text: as §1
# TAOK1 = TAOK1 (Homo sapiens (Human), UniProt Q7L7X3)
# Text: as §1
# ALK = ALK (Homo sapiens (Human), UniProt Q9UM73)
# Text: as §1
# CAMK1 = CAMK1 (Homo sapiens (Human), UniProt Q14012)
# Text: as §1
# DCAMKL3 = DCAMKL3 (Homo sapiens (Human), UniProt Q9C098)
# Text: as §1
# TIE1 = TIE1 (Homo sapiens (Human), UniProt P35590)
# Text: as §1
# EPHA1 = EPHA1 (Homo sapiens (Human), UniProt P21709)
# Text: as §1
# ERK3 = ERK3 (Homo sapiens (Human), UniProt Q16659)
# Text: as §1
# KIT-autoinhibited = KIT-autoinhibited (Homo sapiens (Human), UniProt P10721)
# Text: as §1
# MAPKAPK2 = MAPKAPK2 (Homo sapiens (Human), UniProt P49137)
# Text: as §1
# ROCK2 = ROCK2 (Homo sapiens (Human), UniProt O75116)
# Text: as §1
# FLT3(D835Y) = FLT3(D835Y) (Homo sapiens (Human), UniProt P36888, D835Y)
# Text: as §1
# CLK3 = CLK3 (Homo sapiens (Human), UniProt P49761)
# Text: as §1
# AAK1 = AAK1 (Homo sapiens (Human), UniProt Q2M2I8)
# Text: as §1
# CDK2 = CDK2 (Homo sapiens (Human), UniProt P24941)
# Text: as §1
# CSNK1D = CSNK1D (Homo sapiens (Human), UniProt P48730)
# Text: as §1
# STK33 = STK33 (Homo sapiens (Human), UniProt Q9BYT3)
# Text: as §1
# p38-gamma = p38-gamma (Homo sapiens (Human), UniProt P53778)
# Text: as §1
# BMPR1B = BMPR1B (Homo sapiens (Human), UniProt O00238)
# Text: as §1
# PRKX = PRKX (Homo sapiens (Human), UniProt P51817)
# Text: as §1
# YSK1 = YSK1 (Homo sapiens (Human), UniProt O00506)
# Text: as §1
# ERK2 = ERK2 (Homo sapiens (Human), UniProt P28482)
# Text: as §1
# ACVRL1 = ACVRL1 (Homo sapiens (Human), UniProt P37023)
# Text: as §1
# DLK = DLK (Homo sapiens (Human), UniProt Q12852)
# Text: as §1
# PRKD2 = PRKD2 (Homo sapiens (Human), UniProt Q9BZL6)
# Text: as §1
# TNNI3K = TNNI3K (Homo sapiens (Human), UniProt Q59H18)
# Text: as §1
# [1] = target: JAK1(JH1domain-catalytic) (Homo sapiens (Human), UniProt P23458)
# Text: as §1
# LKB1 = LKB1 (Homo sapiens (Human), UniProt Q15831)
# Text: as §1
# BMPR2 = BMPR2 (Homo sapiens (Human), UniProt Q13873)
# Text: as §1
# PIK3CA(C420R) = PIK3CA(C420R) (Homo sapiens (Human), UniProt P42336, C420R)
# Text: as §1
# PIK3CA(E542K) = PIK3CA(E542K) (Homo sapiens (Human), UniProt P42336, E542K)
# Text: as §1
# SgK110 = SgK110 (Homo sapiens (Human), UniProt P0C264)
# Text: as §1
# EPHA1, sequence (P21709 26-976): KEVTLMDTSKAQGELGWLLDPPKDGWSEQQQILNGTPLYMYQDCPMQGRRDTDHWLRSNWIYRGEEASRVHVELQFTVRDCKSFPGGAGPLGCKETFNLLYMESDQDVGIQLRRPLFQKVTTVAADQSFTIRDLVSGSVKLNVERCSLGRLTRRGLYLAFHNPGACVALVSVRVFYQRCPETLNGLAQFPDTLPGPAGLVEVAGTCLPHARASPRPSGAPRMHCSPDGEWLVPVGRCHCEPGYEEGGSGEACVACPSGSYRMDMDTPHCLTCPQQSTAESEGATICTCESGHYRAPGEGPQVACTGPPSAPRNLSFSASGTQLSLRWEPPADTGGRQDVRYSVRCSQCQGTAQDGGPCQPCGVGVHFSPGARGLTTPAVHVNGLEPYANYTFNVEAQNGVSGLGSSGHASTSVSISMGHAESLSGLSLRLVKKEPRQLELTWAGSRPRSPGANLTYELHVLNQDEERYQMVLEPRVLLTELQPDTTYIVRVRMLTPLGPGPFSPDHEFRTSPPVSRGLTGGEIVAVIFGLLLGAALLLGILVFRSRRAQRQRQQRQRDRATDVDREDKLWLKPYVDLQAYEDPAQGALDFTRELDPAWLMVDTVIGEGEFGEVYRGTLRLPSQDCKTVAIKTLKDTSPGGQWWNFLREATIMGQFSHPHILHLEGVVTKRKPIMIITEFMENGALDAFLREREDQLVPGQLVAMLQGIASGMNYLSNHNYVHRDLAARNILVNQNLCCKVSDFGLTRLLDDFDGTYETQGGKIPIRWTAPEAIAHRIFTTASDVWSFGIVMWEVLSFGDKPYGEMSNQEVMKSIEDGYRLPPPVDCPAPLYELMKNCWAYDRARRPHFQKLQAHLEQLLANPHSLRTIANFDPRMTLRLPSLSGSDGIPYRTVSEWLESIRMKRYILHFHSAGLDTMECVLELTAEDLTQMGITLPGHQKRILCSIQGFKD
# TIE1, sequence (P35590 22-1138): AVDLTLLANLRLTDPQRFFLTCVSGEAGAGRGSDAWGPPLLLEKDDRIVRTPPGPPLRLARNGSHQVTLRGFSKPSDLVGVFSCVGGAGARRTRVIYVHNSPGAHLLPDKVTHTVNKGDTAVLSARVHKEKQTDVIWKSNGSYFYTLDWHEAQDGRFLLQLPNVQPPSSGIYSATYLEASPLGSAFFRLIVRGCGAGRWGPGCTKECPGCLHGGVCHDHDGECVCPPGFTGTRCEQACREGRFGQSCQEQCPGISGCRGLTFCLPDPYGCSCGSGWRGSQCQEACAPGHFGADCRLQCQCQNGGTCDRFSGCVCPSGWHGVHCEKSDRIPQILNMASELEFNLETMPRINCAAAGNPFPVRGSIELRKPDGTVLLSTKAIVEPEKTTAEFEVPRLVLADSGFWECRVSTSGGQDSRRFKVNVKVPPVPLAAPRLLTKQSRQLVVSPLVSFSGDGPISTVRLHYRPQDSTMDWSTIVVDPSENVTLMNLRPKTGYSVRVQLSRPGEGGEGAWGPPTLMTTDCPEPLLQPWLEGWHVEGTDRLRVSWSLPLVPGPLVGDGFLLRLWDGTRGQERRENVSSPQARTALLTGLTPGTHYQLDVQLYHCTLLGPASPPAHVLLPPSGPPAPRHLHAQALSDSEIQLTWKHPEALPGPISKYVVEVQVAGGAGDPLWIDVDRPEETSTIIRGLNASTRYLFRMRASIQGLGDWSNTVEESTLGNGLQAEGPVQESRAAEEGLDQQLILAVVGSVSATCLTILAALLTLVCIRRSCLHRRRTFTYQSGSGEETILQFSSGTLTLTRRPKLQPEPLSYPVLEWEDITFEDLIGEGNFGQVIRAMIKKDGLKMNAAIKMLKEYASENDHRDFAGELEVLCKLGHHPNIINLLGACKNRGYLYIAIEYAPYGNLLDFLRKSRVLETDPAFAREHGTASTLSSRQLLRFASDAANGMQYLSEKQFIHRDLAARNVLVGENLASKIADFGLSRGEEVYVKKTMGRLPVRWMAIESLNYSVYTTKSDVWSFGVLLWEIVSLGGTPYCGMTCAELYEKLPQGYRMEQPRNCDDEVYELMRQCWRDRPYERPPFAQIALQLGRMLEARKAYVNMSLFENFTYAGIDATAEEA
# MET(M1250T), sequence (P08581 25-1390 M1250T): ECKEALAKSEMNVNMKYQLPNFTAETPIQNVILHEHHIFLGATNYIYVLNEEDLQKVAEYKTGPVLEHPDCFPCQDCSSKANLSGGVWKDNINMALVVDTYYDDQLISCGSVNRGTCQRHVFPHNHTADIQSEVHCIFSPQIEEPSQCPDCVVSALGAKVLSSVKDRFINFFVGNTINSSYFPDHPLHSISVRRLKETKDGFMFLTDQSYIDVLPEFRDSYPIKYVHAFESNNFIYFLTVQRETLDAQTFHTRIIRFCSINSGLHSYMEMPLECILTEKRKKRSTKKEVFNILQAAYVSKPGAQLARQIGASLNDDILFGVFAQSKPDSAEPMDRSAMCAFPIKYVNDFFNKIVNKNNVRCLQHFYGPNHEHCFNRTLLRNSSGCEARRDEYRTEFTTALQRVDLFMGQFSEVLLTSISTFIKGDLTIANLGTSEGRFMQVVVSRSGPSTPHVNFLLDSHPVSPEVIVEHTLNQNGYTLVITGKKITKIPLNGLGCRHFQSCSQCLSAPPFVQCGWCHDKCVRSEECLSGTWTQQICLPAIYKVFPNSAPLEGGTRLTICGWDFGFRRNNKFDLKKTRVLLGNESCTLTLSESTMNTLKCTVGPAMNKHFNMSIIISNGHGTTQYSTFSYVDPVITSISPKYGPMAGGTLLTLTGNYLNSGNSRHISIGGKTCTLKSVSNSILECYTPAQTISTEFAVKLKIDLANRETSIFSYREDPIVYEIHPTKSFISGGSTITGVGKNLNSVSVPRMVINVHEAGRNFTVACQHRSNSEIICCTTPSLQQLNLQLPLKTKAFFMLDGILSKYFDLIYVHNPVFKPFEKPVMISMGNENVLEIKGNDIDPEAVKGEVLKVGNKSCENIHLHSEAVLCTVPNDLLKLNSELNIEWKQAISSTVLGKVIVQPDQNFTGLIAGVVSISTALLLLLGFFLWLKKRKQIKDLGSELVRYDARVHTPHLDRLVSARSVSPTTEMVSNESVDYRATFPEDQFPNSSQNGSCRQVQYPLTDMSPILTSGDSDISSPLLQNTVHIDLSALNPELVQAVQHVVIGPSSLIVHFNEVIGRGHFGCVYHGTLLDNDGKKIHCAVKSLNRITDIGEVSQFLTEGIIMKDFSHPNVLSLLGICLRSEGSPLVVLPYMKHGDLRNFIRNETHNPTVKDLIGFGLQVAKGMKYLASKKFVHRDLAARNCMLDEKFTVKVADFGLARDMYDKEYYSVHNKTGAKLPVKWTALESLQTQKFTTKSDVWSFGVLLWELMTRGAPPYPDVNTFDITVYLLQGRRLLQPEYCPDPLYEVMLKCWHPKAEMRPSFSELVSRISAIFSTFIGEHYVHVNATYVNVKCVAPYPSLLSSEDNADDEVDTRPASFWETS
# JAK1(JH1domain-catalytic), sequence (P23458 875-1153 limits assumed): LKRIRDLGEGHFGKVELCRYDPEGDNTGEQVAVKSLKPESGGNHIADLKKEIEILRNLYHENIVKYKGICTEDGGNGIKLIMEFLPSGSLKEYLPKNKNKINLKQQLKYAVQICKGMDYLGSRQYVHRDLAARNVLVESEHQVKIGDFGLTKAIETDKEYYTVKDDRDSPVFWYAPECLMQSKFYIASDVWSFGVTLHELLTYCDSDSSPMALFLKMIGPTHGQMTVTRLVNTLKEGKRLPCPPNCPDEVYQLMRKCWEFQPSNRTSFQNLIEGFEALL
# KIT-autoinhibited, sequence (P10721 546-976 limits assumed): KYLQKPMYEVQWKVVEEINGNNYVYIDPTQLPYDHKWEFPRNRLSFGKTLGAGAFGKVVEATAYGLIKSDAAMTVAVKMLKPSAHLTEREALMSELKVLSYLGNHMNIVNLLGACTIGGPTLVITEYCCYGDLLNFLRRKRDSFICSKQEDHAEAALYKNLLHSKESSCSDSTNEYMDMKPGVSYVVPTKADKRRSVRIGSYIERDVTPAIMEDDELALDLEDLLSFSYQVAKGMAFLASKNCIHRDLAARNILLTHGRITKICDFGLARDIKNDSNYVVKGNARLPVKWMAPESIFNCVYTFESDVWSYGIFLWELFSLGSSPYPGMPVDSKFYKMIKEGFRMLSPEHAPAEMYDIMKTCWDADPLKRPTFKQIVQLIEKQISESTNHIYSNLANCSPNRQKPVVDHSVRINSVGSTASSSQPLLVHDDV
# SgK110, sequence (P0C264 whole entry): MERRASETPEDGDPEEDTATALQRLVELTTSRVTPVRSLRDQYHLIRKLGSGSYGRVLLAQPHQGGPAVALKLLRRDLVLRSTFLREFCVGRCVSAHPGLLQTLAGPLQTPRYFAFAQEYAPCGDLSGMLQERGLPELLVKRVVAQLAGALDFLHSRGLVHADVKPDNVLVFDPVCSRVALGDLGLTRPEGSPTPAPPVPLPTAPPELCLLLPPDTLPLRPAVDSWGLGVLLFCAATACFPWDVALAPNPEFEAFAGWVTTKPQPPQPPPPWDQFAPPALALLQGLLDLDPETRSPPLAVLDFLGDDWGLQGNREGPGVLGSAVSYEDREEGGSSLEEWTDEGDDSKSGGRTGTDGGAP
# CDKL1, sequence (Q00532 whole entry): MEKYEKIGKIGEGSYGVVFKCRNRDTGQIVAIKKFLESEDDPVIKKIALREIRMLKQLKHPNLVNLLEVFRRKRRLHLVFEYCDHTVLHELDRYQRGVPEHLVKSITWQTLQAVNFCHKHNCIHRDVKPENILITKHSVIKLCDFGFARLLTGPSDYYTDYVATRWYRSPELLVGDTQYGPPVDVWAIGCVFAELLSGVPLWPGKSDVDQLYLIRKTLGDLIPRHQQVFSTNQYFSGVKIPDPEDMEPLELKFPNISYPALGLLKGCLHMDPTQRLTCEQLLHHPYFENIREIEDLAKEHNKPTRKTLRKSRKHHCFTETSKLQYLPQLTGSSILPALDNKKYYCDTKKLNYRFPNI
structure (smiles),measurement,setting,value
CCN1CCN(Cc2ccc(Nc3nc4ccc(Oc5ccnc(NC(C)=O)c5)cc4n3C)cc2C(F)(F)F)CC1 [Compound I-2],remaining binding at 1 µM,YANK3,100%
same,remaining binding at 1 µM,FGR,100%
same,remaining binding at 1 µM,MEK6,88%
same,remaining binding at 1 µM,PLK4,92%
same,remaining binding at 1 µM,SIK,95%
same,remaining binding at 1 µM,CSNK1A1L,86%
same,remaining binding at 1 µM,GSK3A,85%
same,remaining binding at 1 µM,BIKE,88%
same,remaining binding at 1 µM,MET(M1250T),63%
same,remaining binding at 1 µM,CDKL1,84%
same,remaining binding at 1 µM,TAOK1,77%
same,remaining binding at 1 µM,ALK,76%
same,remaining binding at 1 µM,CAMK1,83%
same,remaining binding at 1 µM,DCAMKL3,85%
same,remaining binding at 1 µM,TIE1,11%
same,remaining binding at 1 µM,EPHA1,100%
same,remaining binding at 1 µM,ERK3,94%
same,remaining binding at 1 µM,KIT-autoinhibited,76%
same,remaining binding at 1 µM,MAPKAPK2,78%
same,remaining binding at 1 µM,ROCK2,100%
same,remaining binding at 1 µM,FLT3(D835Y),70%
same,remaining binding at 1 µM,CLK3,94%
same,remaining binding at 1 µM,AAK1,100%
same,remaining binding at 1 µM,CDK2,100%
same,remaining binding at 1 µM,CSNK1D,100%
same,remaining binding at 1 µM,STK33,76%
same,remaining binding at 1 µM,p38-gamma,58%
same,remaining binding at 1 µM,BMPR1B,84%
same,remaining binding at 1 µM,PRKX,100%
same,remaining binding at 1 µM,YSK1,94%
same,remaining binding at 1 µM,ERK2,95%
same,remaining binding at 1 µM,ACVRL1,85%
same,remaining binding at 1 µM,DLK,100%
same,remaining binding at 1 µM,PRKD2,92%
same,remaining binding at 1 µM,TNNI3K,23%
same,remaining binding at 1 µM,[1],30%
same,remaining binding at 1 µM,LKB1,40%
same,remaining binding at 1 µM,BMPR2,100%
same,remaining binding at 1 µM,PIK3CA(C420R),100%
same,remaining binding at 1 µM,PIK3CA(E542K),100%
same,remaining binding at 1 µM,SgK110,86%
"CCN1CCN(Cc2ccc(Nc3nc4ccc(Oc5ccnc(NC(C)=O)c5)c(C)c4n3C)cc2C(F)(F)F)CC1 [Compound I-6, N-(4-(2-(4-((4-ethylpiperazin-1-yl)methyl)-3-(trifluoromethyl)phenylamino)-1,7-dimethyl-1H-benzo[d]imidazol-6-yloxy)pyridin-2-yl)acetamide]",remaining binding at 1 µM,YANK3,89%
same,remaining binding at 1 µM,FGR,51%
same,remaining binding at 1 µM,MEK6,71%
same,remaining binding at 1 µM,PLK4,100%
same,remaining binding at 1 µM,SIK,98%
same,remaining binding at 1 µM,CSNK1A1L,100%
same,remaining binding at 1 µM,GSK3A,93%
same,remaining binding at 1 µM,BIKE,96%
same,remaining binding at 1 µM,MET(M1250T),33%
same,remaining binding at 1 µM,CDKL1,87%
same,remaining binding at 1 µM,TAOK1,46%
same,remaining binding at 1 µM,ALK,90%
same,remaining binding at 1 µM,CAMK1,93%
same,remaining binding at 1 µM,DCAMKL3,95%
same,remaining binding at 1 µM,TIE1,4%
same,remaining binding at 1 µM,EPHA1,46%
same,remaining binding at 1 µM,ERK3,94%
same,remaining binding at 1 µM,KIT-autoinhibited,82%
same,remaining binding at 1 µM,MAPKAPK2,100%
same,remaining binding at 1 µM,ROCK2,90%
same,remaining binding at 1 µM,FLT3(D835Y),56%
same,remaining binding at 1 µM,CLK3,95%
same,remaining binding at 1 µM,AAK1,96%
same,remaining binding at 1 µM,CDK2,86%
same,remaining binding at 1 µM,CSNK1D,100%
same,remaining binding at 1 µM,STK33,66%
same,remaining binding at 1 µM,p38-gamma,62%
same,remaining binding at 1 µM,BMPR1B,89%
same,remaining binding at 1 µM,PRKX,100%
same,remaining binding at 1 µM,YSK1,65%
same,remaining binding at 1 µM,ERK2,100%
same,remaining binding at 1 µM,ACVRL1,93%
same,remaining binding at 1 µM,DLK,100%
same,remaining binding at 1 µM,PRKD2,100%
same,remaining binding at 1 µM,TNNI3K,51%
same,remaining binding at 1 µM,[1],40%
same,remaining binding at 1 µM,LKB1,91%
same,remaining binding at 1 µM,BMPR2,100%
same,remaining binding at 1 µM,PIK3CA(C420R),99%
same,remaining binding at 1 µM,PIK3CA(E542K),100%
same,remaining binding at 1 µM,SgK110,100%
